The target of assay [1] is T1, human α2C adrenergic receptor (Homo sapiens, UniProt P18825).
T1 construct: The entire coding region of α2C (1383 bp), including 2 bp of 5′ UT and 400 bp of 3′ UT; expressed in transfected cells
T1 sequence (P18825 1-462): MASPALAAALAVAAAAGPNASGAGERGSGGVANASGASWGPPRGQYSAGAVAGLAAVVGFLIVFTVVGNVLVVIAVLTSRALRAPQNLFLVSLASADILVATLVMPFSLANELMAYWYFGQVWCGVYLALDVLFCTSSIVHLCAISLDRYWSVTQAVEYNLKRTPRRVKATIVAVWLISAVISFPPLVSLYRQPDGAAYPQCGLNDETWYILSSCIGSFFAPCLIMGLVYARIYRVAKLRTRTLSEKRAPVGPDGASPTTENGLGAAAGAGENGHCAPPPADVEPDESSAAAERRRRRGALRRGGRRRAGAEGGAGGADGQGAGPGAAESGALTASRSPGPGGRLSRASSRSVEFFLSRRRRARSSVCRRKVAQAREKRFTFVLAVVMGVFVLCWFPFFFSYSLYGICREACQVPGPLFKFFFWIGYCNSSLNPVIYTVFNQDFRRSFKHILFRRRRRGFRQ
The assay is described as follows: Radioligand binding assay, [3H]rauwolscine competition.

The target of assay [2] is T2, human α1A adrenergic receptor (Homo sapiens, UniProt P25100).
T2 construct: expressed in transfected cells
T2 sequence (P25100 1-572): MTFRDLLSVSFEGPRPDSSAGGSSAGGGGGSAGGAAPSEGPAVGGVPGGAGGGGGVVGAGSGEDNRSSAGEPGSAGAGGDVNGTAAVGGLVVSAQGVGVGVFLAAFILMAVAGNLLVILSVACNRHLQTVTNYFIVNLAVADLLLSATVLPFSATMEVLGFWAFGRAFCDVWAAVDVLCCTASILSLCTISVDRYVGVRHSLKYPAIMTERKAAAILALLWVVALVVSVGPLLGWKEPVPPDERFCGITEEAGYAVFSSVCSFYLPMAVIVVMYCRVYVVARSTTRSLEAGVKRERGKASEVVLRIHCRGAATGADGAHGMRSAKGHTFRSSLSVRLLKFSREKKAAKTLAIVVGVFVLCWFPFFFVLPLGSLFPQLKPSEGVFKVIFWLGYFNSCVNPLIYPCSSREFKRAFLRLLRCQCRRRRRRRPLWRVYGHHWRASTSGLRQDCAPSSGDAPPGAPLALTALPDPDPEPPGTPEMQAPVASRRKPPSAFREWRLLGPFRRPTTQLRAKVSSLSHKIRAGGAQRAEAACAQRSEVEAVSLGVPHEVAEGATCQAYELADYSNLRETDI
The assay is described as follows: Radioligand binding assay, [3H]prazosin competition. The note with it: cloned human α1A (old nomenclature; = α1D), LM(tk-) cell membranes, read-out: pKi Alpha-1 A (converted). How it is done: Equilibrium competition binding assays were performed with membrane preparations from cultured LM(tk^−) cells stably transfected with the cloned human alpha adrenoreceptor subtypes except for α2b, which was expressed in Y-1 cells, using [^3H] prazosin for α1 receptors and [^3H] rauwolscine for α2 receptors. Further details of pharmacological evaluations of claimed compounds are described in Example 21.
The cloned human alpha-1 adrenergic receptor subtypes referred to throughout this application as α1A, α1B, and α1C have recently been assigned new subtype designations by the IUPHAR Nomenclature Committee as outlined in the 1995 Receptor and Ion Channel Nomenclature Supplement (Watson and Girdlestone, 1995). In the new nomenclature system the cloned human α1A receptor referred to herein was given the appellation “α1D,” while the cloned human α1C receptor referred to herein was given the appellation “α1A”. However, throughout this application and the supporting tables and figures the old nomenclature will be used to describe the cloned human alpha-1 adrenergic receptor subtypes. The old nomenclature is used throughout this application because stable cell lines expressing the cloned human alpha-1 adrenergic receptors were produced and deposited with the ATCC according to the Budapest Treaty for the Deposit of Microorganisms, under designations assigned before the nomenclature change.
The construct involved the ligation of partial overlapping human lymphocyte genomic and hippocampal cDNA clones: 5′ sequences were contained on a 1.2 kb SmaI-XhoI genomic fragment (the vector-derived BamHI site was used for subcloning instead of the internal insert-derived SmaI site) and 3′ sequences were contained on 1.3 kb XhoI-ClaI cDNA fragment (the ClaI site was from the vector polylinker). Stable cell lines were produced and selected as described above.
Transfected cells from culture flasks were scraped into 5 mL of 5 mM Tris-HCl, 5 mM EDTA, pH 7.5, and lysed by sonication. The cell lysates were centrifuged at 1000 rpm for 5 min at 4° C., and the supernatant was centrifuged at 30,000×g for 20 min at 4° C. The pellet was suspended in 50 mM Tris-HCl, 1 mM MgCl2, and 0.1% Ascorbic acid at pH 7.5. Binding of α2 antagonist [^3H] rauwolscine ([…]) to membrane preparations of LM(tk−) cells was done in a final volume of 0.25 mL and incubated at 37° C. for 20 min. Nonspecific binding was determined in the presence of 10 μM phentolamine. The reaction was stopped by filtration through GF/B filters using a cell harvester.

For assay [3], the target named is T1, human α2C adrenergic receptor. The assay is described as follows: Agonist activity: inhibition of forskolin-stimulated cAMP synthesis. It counts as cell-based. Particulars: for EC50: inhibition of forskolin-stimulated cAMP, stably transfected cells expressing human α2C, read-out: pEC50 Alpha-2 C (converted); for I.A (Intrinsic Activity) Alpha-2 C: maximum activity relative to maximum activity induced by norepinephrine, human α2C.

The target in assay [4] is T3, human α2A adrenergic receptor (Homo sapiens, UniProt P08913).
T3 sequence (P08913 1-465): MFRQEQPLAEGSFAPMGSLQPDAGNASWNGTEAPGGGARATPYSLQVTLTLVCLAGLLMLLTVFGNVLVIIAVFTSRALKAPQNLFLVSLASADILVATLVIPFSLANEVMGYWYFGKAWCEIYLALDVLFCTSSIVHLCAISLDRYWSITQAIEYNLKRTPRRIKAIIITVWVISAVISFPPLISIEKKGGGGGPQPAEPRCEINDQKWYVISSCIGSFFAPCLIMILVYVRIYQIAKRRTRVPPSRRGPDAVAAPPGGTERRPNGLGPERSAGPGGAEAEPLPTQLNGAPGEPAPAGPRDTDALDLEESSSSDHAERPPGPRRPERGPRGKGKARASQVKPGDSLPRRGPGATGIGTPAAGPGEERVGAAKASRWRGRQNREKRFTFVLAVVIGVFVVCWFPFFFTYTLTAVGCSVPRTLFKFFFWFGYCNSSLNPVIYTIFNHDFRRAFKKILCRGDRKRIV
The assay is described as follows: Radioligand binding assay, [3H]rauwolscine competition. Also on record: expressed in transfected cells.

Assay [5] has as its target T3, human α2A adrenergic receptor. The assay is described as follows: Agonist activity: inhibition of forskolin-stimulated cAMP synthesis. The note with it: for I.A (Intrinsic Activity) Alpha-2 A: maximum activity relative to maximum activity induced by norepinephrine, human α2A.

The text below walks through data of patent US6723741B2, “Benzimidazoles and benzothiazoles and uses thereof” (Synaptic Pharmaceutical Corporation, priority 1996, dated 2004).

Like-named read-outs stand apart in the source and are kept apart here.

`Brc1cc(NC2=NCCN2)cc2cc[nH]c12` [Example 2, 7-Bromo-5-(2-imidazolin-2-ylamino)indole]: the Ki was 12.9 nM in assay [1], 2.88 nM in assay [2] and 0.724 nM in assay [4]. Further, the values for the EC50 in assay [3] and in assay [5] were 0.407 nM and 0.437 nM, respectively. Besides, the “I.A (Intrinsic Activity) Alpha-2 C” value in assay [3] was found to be 1.00. For the same molecule, in assay [5], the “I.A (Intrinsic Activity) Alpha-2 A” value came to 0.46.
`N#Cc1cc(NC2=NCCN2)cc2cc[nH]c12` [Example 5, 7-Cyano-5-(2-imidazolin-2-ylamino)indole]: the Ki in assay [1] was 43.7 nM. For the same molecule, in assay [2], the Ki is 162 nM. In addition, in assay [3], the EC50 is 0.589 nM and the “I.A (Intrinsic Activity) Alpha-2 C” value is on record as 1.00.
The corresponding values for `CC(=O)c1cc(NC2=NCCN2)cc2cc[nH]c12` [Example 6, 7-Acetyl-5-(2-imidazolin-2-ylamino)indole] are 117 nM, 93.3 nM, 40.7 nM and 0.90.
In the case of `c1nc2cc(NC3=NCCN3)ccc2s1` [Example 13, 5-(2-Imidazolin-2-ylamino)benzothiazole], the Ki is 20.4 nM in assay [1], 186 nM in assay [2] and 3.72 nM in assay [4]. For the same molecule, the results for the EC50 in assay [3] and in assay [5] were 0.603 nM and 12.3 nM, respectively. Further, the “I.A (Intrinsic Activity) Alpha-2 C” value in assay [3] came out at 1.00. Besides, the “I.A (Intrinsic Activity) Alpha-2 A” value in assay [5] turned out to be 0.98.
Turning to `c1nc2ccc(NC3=NCCN3)cc2s1` [Example 14, 6-(2-Imidazolin-2-ylamino)benzothiazole], in assay [2], the Ki was 1700 nM. In assay [3], the “I.A (Intrinsic Activity) Alpha-2 C” value turned out to be 1.00. The “I.A (Intrinsic Activity) Alpha-2 A” value in assay [5] is 0.51.
`c1nc2ccc(NC3=NCCS3)cc2s1` [Example 15, 6-(2-Thiazolin-2-ylamino)benzothiazole]: the Ki in assay [2] is 6030 nM; in assay [4] (cloned human α2A, LM(tk-) cell membranes, [3H]rauwolscine, read-out: pKi Alpha-2 A (converted)), 115 nM. Further, in assay [3], the “I.A (Intrinsic Activity) Alpha-2 C” value amounted to 0.88. This molecule also showed an EC50 in assay [5] of 3090 nM. For the same molecule, in assay [5], the “I.A (Intrinsic Activity) Alpha-2 A” value was determined as 0.58.
